Data: ChEMBL document CHEMBL4308851, “Alkyl-guanidine Compounds as Potent Broad-Spectrum Antibacterial Agents: Chemical Library Extension and Biological Characterization” (J Med Chem, 2018)
In brackets after ≈: the same amount, converted by molar mass. Activity calls are given as the source filed them. The calls are words filed in the database; no cut-off is given here.

Key:
[1] = test system: Bacillus spizizenii; experiment: Antibacterial activity against Bacillus subtilis ATCC 6633 after 18 hrs by microdilution broth method; format: functional; details: ATCC 6633, 18 h
[2] = test system: Enterococcus faecalis; experiment: Antibacterial activity against Enterococcus faecalis ATCC 19433 after 18 hrs by microdilution broth method; format: functional; details: ATCC 19433, 18 h
[3] = test system: Staphylococcus aureus; experiment: Antibacterial activity against Staphylococcus aureus ATCC 25923 after 18 hrs by microdilution broth method; format: functional; details: ATCC 25923, 18 h
[4] = test system: Streptococcus pyogenes; experiment: Antibacterial activity against Streptococcus pyogenes ATCC 12344 after 18 hrs by microdilution broth method; format: functional; details: ATCC 12344, 18 h
[5] = test system: Acinetobacter baumannii; experiment: Antibacterial activity against Acinetobacter baumannii ATCC 17978 after 18 hrs by microdilution broth method; format: functional; details: ATCC 17978, 18 h
[6] = test system: Klebsiella pneumoniae; experiment: Antibacterial activity against Klebsiella pneumoniae ATCC […] after 18 hrs by microdilution broth method; format: functional
[7] = test system: Pseudomonas aeruginosa; experiment: Antibacterial activity against Pseudomonas aeruginosa ATCC 27853 after 18 hrs by microdilution broth method; format: functional; details: ATCC 27853, 18 h
[8] = test system: Escherichia coli; experiment: Disruption of inner membrane integrity in Escherichia coli MG1655 assessed as induction of […] conversion at 256 ug/ml measured at 10 mins intervals for 1 hr; format: functional, organism-based; details: K-12 substr. MG1655
[9] = test system: Pseudomonas aeruginosa; experiment: Disruption of inner membrane integrity in Pseudomonas aeruginosa PAO1 ATCC 15692 co-expressing pMP2200::PrrnB plasmid assessed as induction of OPNG conversion at 256 ug/ml measured at 10 mins intervals for 1 hr; format: functional, organism-based
[10] = test system: Acinetobacter baumannii; experiment: Disruption of inner membrane integrity in Acinetobacter baumannii ATCC 19606 co-expressing pMP2200::PrrnB plasmid assessed as induction of […] conversion at 256 ug/ml measured at 10 mins intervals for 1 hr; format: functional, organism-based; details: ATCC 19606 = CIP 70.34 = JCM 6841
[11] = test system: Escherichia coli; experiment: Disruption of Escherichia coli MG1655 ATCC 47076 outer membrane integrity assessed as induction of NPN uptake after 30 mins by NPN fluorescence-based assay; format: functional, organism-based; details: K-12 substr. MG1655 ATCC 47076
[12] = test system: Pseudomonas aeruginosa; experiment: Disruption of Pseudomonas aeruginosa PAO1 ATCC 15692 outer membrane integrity assessed as induction of NPN uptake after 30 mins by NPN fluorescence-based assay; format: functional, organism-based
[13] = test system: Acinetobacter baumannii; experiment: Disruption of Acinetobacter baumannii ATCC 19606 outer membrane integrity assessed as induction of NPN uptake after 30 mins by NPN fluorescence-based assay; format: functional, organism-based; details: ATCC 19606 = CIP 70.34 = JCM 6841
[14] = test system: Escherichia coli; experiment: Antibiofilm activity against Escherichia coli MG1655 ATCC 47076 at half MIC concentration after 24 hrs by crystal violet-based assay; format: functional, organism-based; details: K-12 substr. MG1655 ATCC 47076
[15] = test system: Pseudomonas aeruginosa; experiment: Antibiofilm activity against Pseudomonas aeruginosa PAO1 ATCC 15692 at half MIC concentration after 24 hrs by crystal violet-based assay; format: functional, organism-based
[16] = test system: Acinetobacter baumannii; experiment: Antibiofilm activity against Acinetobacter baumannii ATCC 19606 at half MIC concentration after 24 hrs by crystal violet-based assay; format: functional, organism-based; details: ATCC 19606 = CIP 70.34 = JCM 6841
[17] = test system: Escherichia coli; experiment: Antibiofilm activity against Escherichia coli MG1655 ATCC 47076 assessed as effect on biofilm 3D structures at half MIC concentration after 24 hrs by AO-staining based confocal microscopy; format: functional, organism-based; details: K-12 substr. MG1655 ATCC 47076
[18] = test system: Pseudomonas aeruginosa; experiment: Antibiofilm activity against Pseudomonas aeruginosa PAO1 ATCC 15692 assessed as effect on biofilm 3D structures at half MIC concentration after 24 hrs by AO-staining based confocal microscopy; format: functional, organism-based
[19] = test system: Acinetobacter baumannii; experiment: Antibiofilm activity against Acinetobacter baumannii ATCC 19606 assessed as effect on biofilm 3D structures at half MIC concentration after 24 hrs by AO-staining based confocal microscopy; format: functional, organism-based; details: ATCC 19606 = CIP 70.34 = JCM 6841
[20] = Hemolytic activity against human erythrocytes assessed as induction of hemolysis at 64 ug/ml after 30 mins; format: cell-based, Erythrocyte; details: read-out: Activity
[21] = test system: Escherichia coli; experiment: Antibacterial activity against Escherichia coli CCUG after 18 hrs by microdilution broth method
[22] = test system: Burkholderia cepacia; experiment: Antibacterial activity against Burkholderia cepacia isolate SI-R2 after 18 hrs by microdilution broth method; format: functional; details: isolate SI-R2, 18 h
[23] = test system: Enterobacter cloacae; experiment: Antibacterial activity against Enterobacter cloacae isolate VA-417/02 after 18 hrs by microdilution broth method; format: functional; details: isolate VA-417/02, 18 h
[24] = test system: Klebsiella pneumoniae; experiment: Antibacterial activity against Klebsiella pneumoniae isolate SI-081 after 18 hrs by microdilution broth method; format: functional; details: isolate SI-081, 18 h
[25] = test system: Stenotrophomonas maltophilia; experiment: Antibacterial activity against Stenotrophomonas maltophilia isolate 634/08 after 18 hrs by microdilution broth method; format: functional; details: isolate 634/08, 18 h
[26] = test system: Acinetobacter baumannii; experiment: Antibacterial activity against Acinetobacter baumannii isolate AC-54/97 after 18 hrs by microdilution broth method; format: functional; details: isolate AC-54/97, 18 h

Structure (SMILES) | MIC [1] [µg/mL] | MIC [2] [µg/mL] | MIC [3] [µg/mL] | MIC [4] [µg/mL] | MIC [5] [µg/mL] | MIC [6] [µg/mL] | MIC [7] [µg/mL] | MIC [21] [µg/mL] | also measured
N=C(N)NCCCCCCCCNCCCCCCCCNC(=N)NCC1CC1 | 64 (≈ 156 µM) | > 64 | > 64 | > 64 | > 64 | > 64 | > 64 | 64 (≈ 156 µM) | Activity [8]: inactive; Activity [9]: inactive; Activity [10]: inactive; Activity [11]: Dose-dependent effect; Activity [12]: Dose-dependent effect; Activity [13]: Dose-dependent effect; Activity [14]: inactive; Activity [15]: inactive; Activity [16]: inactive; Activity [17]: inactive; Activity [18]: inactive; Activity [19]: inactive; hemolysis at 0.5 h, 64 ug/ml [20]: 0 to 7%
CNC(=O)NC(=N)NCCCCCCCCN(CCCCCCCCNC(=N)NC(=O)NC)C(=O)N(CCCCCCCCNC(=N)NCC1CC1)CCCCCCCCNC(=N)NCC1CC1 | 2 (≈ 2.08 µM) | 4 (≈ 4.17 µM) | 2 (≈ 2.08 µM) | 2 (≈ 2.08 µM) | 8 (≈ 8.34 µM) | 4 (≈ 4.17 µM) | 16 (≈ 16.7 µM) | 4 (≈ 4.17 µM) | –
CC(C)(C)OC(=O)/N=C(/NCCCCCCCCN(CCCCCCCCN/C(=N/C(=O)OC(C)(C)C)NC(=O)OC(C)(C)C)C(=O)N(CCCCCCCCN/C(=N/C(=O)OC(C)(C)C)N(CC1CC1)C(=O)OC(C)(C)C)CCCCCCCCN/C(=N/C(=O)OC(C)(C)C)N(CC1CC1)C(=O)OC(C)(C)C)NC(=O)OC(C)(C)C | ≥ 256 | ≥ 256 | ≥ 256 | ≥ 256 | ≥ 256 | ≥ 256 | ≥ 256 | ≥ 256 | MIC [26]: ≥ 256 µg/mL; MIC [22]: ≥ 256 µg/mL; MIC [23]: ≥ 256 µg/mL; MIC [24]: ≥ 256 µg/mL; MIC [25]: ≥ 256 µg/mL
N=C(NCCCCCCCCN(CCCCCCCCNC(=N)NCc1ccccc1)C(=O)N(CCCCCCCCNC(=N)NCc1ccccc1)CCCCCCCCNC(=N)NCc1ccccc1)NCc1ccccc1 | 4 (≈ 3.64 µM) | 4 (≈ 3.64 µM) | 8 (≈ 7.29 µM) | 1 (≈ 0.911 µM) | 16 (≈ 14.6 µM) | 4 (≈ 3.64 µM) | 8 (≈ 7.29 µM) | 4 (≈ 3.64 µM) | –

Further lines, with some results ahead:

MIC [1] [µg/mL] | MIC [2] [µg/mL] | MIC [3] [µg/mL] | MIC [4] [µg/mL] | MIC [5] [µg/mL] | MIC [6] [µg/mL] | MIC [7] [µg/mL] | MIC [21] [µg/mL] | Structure (SMILES) | also measured
4 (≈ 5.46 µM) | 32 (≈ 43.6 µM) | 4 (≈ 5.46 µM) | 2 (≈ 2.73 µM) | 128 (≈ 175 µM) | 32 (≈ 43.6 µM) | 256 (≈ 349 µM) | 16 (≈ 21.8 µM) | N=C(N)NCCCCCCN(CCCCCCNC(=N)NCC1CC1)C(=O)N(CCCCCCNC(=N)N)CCCCCCNC(=N)NCC1CC1 | –
1 (≈ 1.26 µM) | 1 (≈ 1.26 µM) | 1 (≈ 1.26 µM) | 0.5 (≈ 0.63 µM) | 16 (≈ 20.2 µM) | 2 (≈ 2.52 µM) | 16 (≈ 20.2 µM) | 2 (≈ 2.52 µM) | CCNC(=N)NCCCCCCCCN(CCCCCCCCNC(=N)N)C(=O)N(CCCCCCCCNC(=N)N)CCCCCCCCNC(=N)NCC | MIC [22]: 32 µg/mL (≈ 40.3 µM); MIC [23]: 4 µg/mL (≈ 5.04 µM); MIC [24]: 4 µg/mL (≈ 5.04 µM); MIC [25]: 16 µg/mL (≈ 20.2 µM)
4 (≈ 5.08 µM) | 16 (≈ 20.3 µM) | 4 (≈ 5.08 µM) | 2 (≈ 2.54 µM) | 64 (≈ 81.3 µM) | 16 (≈ 20.3 µM) | 128 (≈ 163 µM) | 8 (≈ 10.2 µM) | N=C(N)NCCCCCCN(CCCCCCNC(=N)NCC1CC1)C(=O)N(CCCCCCNC(=N)NCC1CC1)CCCCCCNC(=N)NCC1CC1 | –
4 (≈ 4.46 µM) | 8 (≈ 8.91 µM) | 2 (≈ 2.23 µM) | 1 (≈ 1.11 µM) | 64 (≈ 71.3 µM) | 4 (≈ 4.46 µM) | 128 (≈ 143 µM) | 4 (≈ 4.46 µM) | N=C(NCCCCCCCCN(CCCCCCCCNC(=N)NCC1CC1)C(=O)N(CCCCCCNC(=N)NCC1CC1)CCCCCCNC(=N)NCC1CC1)NCC1CC1 | –
